From patent US9586951B2 (FUJIFILM Corporation, priority 2013, dated 2017)

Target: T1, ATM (Homo sapiens, UniProt Q13315)
T1 construct: detecting phosphorylation of Chk2 in a human non-small cell lung cancer cell line NCI-H460 (ATCC company); host or cells: NCI-H460 human non-small cell lung cancer cells
Test: ATM inhibition test (phosphorylation of Chk2 generated by ionizing radiation, AlphaScreen SureFire)
Format: cell-based
Conditions: phosphorylated Chk2 in NCI-H460 cells, ionizing radiation 8Gy, 1 hour after test compound treatment; read-out: ATM inhibitory activity
Summary of the method: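 Human NCI-H460 lung cancer cells were treated with compound for 1 h, then irradiated at 8Gy and incubated 1 h at 37° C. Phospho-Chk2 was quantified by AlphaScreen SureFire; inhibition % was normalised between irradiated untreated and non-irradiated untreated wells.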

T1 sequence (Q13315 whole entry): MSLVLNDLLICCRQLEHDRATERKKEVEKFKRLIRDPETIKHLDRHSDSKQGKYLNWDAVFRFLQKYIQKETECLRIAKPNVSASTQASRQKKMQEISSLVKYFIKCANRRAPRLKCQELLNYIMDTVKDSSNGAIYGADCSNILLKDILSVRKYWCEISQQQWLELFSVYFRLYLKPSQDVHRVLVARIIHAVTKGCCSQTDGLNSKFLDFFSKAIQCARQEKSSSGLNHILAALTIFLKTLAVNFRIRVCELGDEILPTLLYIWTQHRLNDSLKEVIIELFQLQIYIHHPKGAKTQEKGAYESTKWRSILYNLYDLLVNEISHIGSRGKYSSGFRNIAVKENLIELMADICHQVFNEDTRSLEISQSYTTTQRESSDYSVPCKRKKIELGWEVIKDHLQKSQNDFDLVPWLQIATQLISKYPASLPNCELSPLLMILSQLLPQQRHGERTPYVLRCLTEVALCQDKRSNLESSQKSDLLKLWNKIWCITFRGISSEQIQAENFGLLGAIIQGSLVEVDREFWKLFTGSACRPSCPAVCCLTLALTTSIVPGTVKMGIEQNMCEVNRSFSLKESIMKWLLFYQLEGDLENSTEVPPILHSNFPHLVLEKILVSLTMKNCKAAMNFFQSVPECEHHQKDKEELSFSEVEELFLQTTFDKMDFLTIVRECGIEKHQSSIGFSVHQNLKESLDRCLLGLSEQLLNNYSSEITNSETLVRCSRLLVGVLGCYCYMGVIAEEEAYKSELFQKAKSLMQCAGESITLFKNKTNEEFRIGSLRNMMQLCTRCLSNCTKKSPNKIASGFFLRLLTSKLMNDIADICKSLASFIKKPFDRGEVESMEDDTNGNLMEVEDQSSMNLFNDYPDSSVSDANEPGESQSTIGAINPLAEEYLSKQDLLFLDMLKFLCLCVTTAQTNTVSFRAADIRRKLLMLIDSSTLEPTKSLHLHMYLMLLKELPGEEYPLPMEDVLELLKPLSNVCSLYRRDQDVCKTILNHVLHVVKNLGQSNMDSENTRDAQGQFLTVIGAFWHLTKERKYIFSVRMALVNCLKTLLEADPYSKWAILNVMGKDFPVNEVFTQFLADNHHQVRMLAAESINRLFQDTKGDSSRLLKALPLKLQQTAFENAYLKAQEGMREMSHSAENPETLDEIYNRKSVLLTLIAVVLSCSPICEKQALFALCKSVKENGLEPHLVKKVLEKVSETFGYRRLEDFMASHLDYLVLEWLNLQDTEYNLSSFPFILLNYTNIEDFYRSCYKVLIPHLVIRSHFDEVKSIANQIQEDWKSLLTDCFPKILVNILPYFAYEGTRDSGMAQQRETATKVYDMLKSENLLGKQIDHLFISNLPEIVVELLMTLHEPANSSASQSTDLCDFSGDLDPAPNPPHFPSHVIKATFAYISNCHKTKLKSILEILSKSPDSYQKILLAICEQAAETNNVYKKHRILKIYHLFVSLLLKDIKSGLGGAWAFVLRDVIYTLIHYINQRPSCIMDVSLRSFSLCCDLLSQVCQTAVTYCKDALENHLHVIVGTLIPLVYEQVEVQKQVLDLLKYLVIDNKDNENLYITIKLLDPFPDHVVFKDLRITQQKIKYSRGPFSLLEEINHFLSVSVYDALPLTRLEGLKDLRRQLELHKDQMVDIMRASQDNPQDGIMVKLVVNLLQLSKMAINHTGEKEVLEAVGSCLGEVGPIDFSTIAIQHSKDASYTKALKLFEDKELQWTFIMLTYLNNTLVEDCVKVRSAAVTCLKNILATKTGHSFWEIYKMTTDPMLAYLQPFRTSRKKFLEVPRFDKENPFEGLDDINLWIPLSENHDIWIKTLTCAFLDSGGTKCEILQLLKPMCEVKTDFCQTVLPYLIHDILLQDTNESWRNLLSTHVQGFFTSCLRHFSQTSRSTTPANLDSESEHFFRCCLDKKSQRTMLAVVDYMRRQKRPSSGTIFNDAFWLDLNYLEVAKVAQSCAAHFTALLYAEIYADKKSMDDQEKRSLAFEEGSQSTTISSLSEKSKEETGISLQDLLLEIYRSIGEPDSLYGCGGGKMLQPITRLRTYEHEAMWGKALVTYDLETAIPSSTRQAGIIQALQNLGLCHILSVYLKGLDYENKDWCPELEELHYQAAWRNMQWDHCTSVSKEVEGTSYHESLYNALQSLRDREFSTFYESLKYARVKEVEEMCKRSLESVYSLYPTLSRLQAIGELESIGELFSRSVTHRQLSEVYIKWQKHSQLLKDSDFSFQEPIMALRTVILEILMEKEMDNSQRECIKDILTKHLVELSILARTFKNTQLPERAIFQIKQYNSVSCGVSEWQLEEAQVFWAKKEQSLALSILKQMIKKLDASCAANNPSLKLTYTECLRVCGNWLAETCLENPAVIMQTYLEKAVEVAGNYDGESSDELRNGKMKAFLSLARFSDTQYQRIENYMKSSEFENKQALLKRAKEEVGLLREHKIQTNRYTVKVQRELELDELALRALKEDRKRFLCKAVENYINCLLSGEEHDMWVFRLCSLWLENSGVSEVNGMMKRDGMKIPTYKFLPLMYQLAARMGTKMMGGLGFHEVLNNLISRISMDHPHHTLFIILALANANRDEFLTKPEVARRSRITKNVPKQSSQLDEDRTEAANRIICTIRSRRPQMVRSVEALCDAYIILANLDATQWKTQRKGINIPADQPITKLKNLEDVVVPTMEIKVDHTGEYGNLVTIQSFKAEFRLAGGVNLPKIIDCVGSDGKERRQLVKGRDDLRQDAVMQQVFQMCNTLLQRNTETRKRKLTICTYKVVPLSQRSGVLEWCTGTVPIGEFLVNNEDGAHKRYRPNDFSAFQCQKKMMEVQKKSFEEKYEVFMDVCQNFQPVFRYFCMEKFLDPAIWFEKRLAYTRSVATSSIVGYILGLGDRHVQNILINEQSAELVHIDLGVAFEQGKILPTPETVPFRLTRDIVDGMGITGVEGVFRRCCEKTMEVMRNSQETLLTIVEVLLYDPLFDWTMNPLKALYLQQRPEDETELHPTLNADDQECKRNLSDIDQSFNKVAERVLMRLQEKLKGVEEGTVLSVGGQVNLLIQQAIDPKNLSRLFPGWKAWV

| IC50 | SMILES |
| --- | --- |
| 0.1 to 0.5 µM | Cc1cccc(C(CO)Nc2ccc3c(c2)Sc2cccc(-c4cc(N5CCOCC5)cc(=O)[nH]4)c2S3)n1 (single isomer, unassigned) [Example 1-12-140-1, 6-(7-((2-hydroxy-1-(6-methylpyridin-2-yl)ethyl)amino)thianthren-1-yl)-4-morpholinopyridin-2(1H)-one] |
| 0.1 to 0.5 µM | O=c1cc(N2CCOCC2)cc(-c2cccc3c2Oc2cccc(N4CCOCC4)c2C3)[nH]1 [Example 2-60, 4-Morpholino-6-(8-morpholino-9H-xanthen-4-yl)pyridin-2(1H)-one] |
| 0.1 to 0.5 µM | CC(CCN1CCCCC1)Nc1ccc2c(c1)Sc1cccc(-c3cc(N4CCOCC4)cc(=O)[nH]3)c1S2 (centres unmarked) [Example 1-42-3, 4-Morpholino-6-(7-((4-(piperidin-1-yl)butan-2-yl)amino)thianthren-1-yl) pyridin-2(1H)-one] |
| 0.1 to 0.5 µM | Cc1ccc(C(Nc2ccc3c(c2)Sc2cccc(-c4cc(N5CCOCC5)cc(=O)[nH]4)c2S3)[C@H]2CCCN2C)nc1 (single isomer, unassigned) [Example 1-56-4] |
| 0.5 to 2 µM | CC(Nc1ccc2c(c1)Cc1cccc(-c3cc(N4CCOCC4)cc(=O)[nH]3)c1O2)c1ncc(CN2CCOCC2)cn1 (centres unmarked) [Example 2-14-67, 4-Morpholino-6-(7-((1-(5-(morpholinomethyl)pyrimidin-2-yl)ethyl)amino)-9H-xanthen-4-yl)pyridin-2 (1H)-one] |
| 0.1 to 0.5 µM | CC(CN1CCOCC1C)Nc1ccc2c(c1)Sc1cccc(-c3cc(N4CCOCC4)cc(=O)[nH]3)c1S2 (centres unmarked) [Example 1-13-10, 6-(7-((1-(3-Methylmorpholino)propan-2-yl)amino)thianthren-1-yl)-4-morpholino pyridin-2(1H)-one] |
| 0.1 to 0.5 µM | Cc1cccc(C(CCN2CCCC2)Nc2ccc3c(c2)Sc2cccc(-c4cc(N5CCOCC5)cc(=O)[nH]4)c2S3)n1 (centres unmarked) [Example 1-34-6, 6-(7-((1-(6-Methylpyridin-2-yl)-3-(pyrrolidin-1-yl)propyl)amino)thianthren-1-yl)-4-morpholino pyridin-2(1H)-one] |
| 0.5 to 2 µM | O=c1cc(N2CCOCC2)cc(-c2cccc3c2Oc2ccc(NC4CCN(Cc5ccc(C(F)(F)F)nc5)CC4)cc2C3)[nH]1 [Example 2-28-15, 4-Morpholino-6-(7-((1-((6-(trifluoromethyl)pyridin-3-yl)methyl)piperidin-4-yl)amino)-9H-xanthen-4-yl) pyridin-2(1H)-one] |
| 0.1 to 0.5 µM | Cc1cc(C(C)Nc2ccc3c(c2)Cc2cccc(-c4cc(N5CCOCC5)cc(=O)[nH]4)c2O3)ccn1 (centres unmarked) [Example 2-14-28, 6-(7-((1-(2-Methylpyridin-4-yl)ethyl)amino)-9H-xanthen-4-yl)-4-morpholino pyridin-2(1H)-one] |
| 0.1 to 0.5 µM | CC(Nc1ccc2c(c1)Sc1cccc(-c3cc(N4CCOCC4)cc(=O)[nH]3)c1S2)c1cccc(CN(C)C)n1 (centres unmarked) [Example 1-12-111, 6-(7-((1-(6-((Dimethylamino)methyl)pyridin-2-yl)ethyl)amino)thianthren-1-yl)-4-morpholino pyridin-2(1H)-one] |
| < 0.1 µM | Cc1ccc(C(CCN2CCOCC2)Nc2ccc3c(c2)Sc2cccc(-c4cc(N5CCOCC5)cc(=O)[nH]4)c2S3)nc1 (single isomer, unassigned) [Example 1-51-7, 6-(7-((1-(5-Methylpyridin-2-yl)-3-morpholinopropyl)amino)thianthren-1-yl)-4-morpholino pyridin-2(1H)-one] |
| 0.1 to 0.5 µM | O=c1cc(N2CCOCC2)cc(-c2cccc3c2Sc2ccc(NCc4ncccn4)cc2C3)[nH]1 [Example 3-8-6, 4-Morpholino-6-(7-((pyrimidin-2-ylmethyl)amino)-9H-thioxanthen-4-yl) pyridin-2(1H)-one] |
| 0.5 to 2 µM | Nc1ccc2c(c1)Cc1cc(F)cc(-c3cc(N4CCOCC4)cc(=O)[nH]3)c1O2 [Example 2-48-1, 6-(7-amino-2-fluoro-9H-xanthen-4-yl)-4-morpholinopyridin-2(1H)-one] |
| 0.1 to 0.5 µM | Cc1ccc(C2(Nc3ccc4c(c3)Sc3cccc(-c5cc(N6CCOCC6)cc(=O)[nH]5)c3S4)CCC2)nc1 [Example 1-50-3, 6-(7-((1-(5-Methylpyridin-2-yl)cyclobutyl)amino)thianthren-1-yl)-4-morpholino pyridin-2(1H)-one] |
| 0.1 to 0.5 µM | CNCc1ccnc(C(C)Nc2ccc3c(c2)Sc2cccc(-c4cc(N5CCOCC5)cc(=O)[nH]4)c2S3)n1 (centres unmarked) [Example 1-20-1, 6-(7-((1-(4-((methylamino)methyl)pyrimidin-2-yl)ethyl)amino)thianthren-1-yl)-4-morpholinopyridin-2(1H)-one] |
| 0.1 to 0.5 µM | Cc1cccc(C(C)Nc2ccc3c(c2)Cc2cccc(-c4cc(N5CCOCC5)cc(=O)[nH]4)c2O3)n1 (single isomer, unassigned) [Example 2-14-85-1, 6-(7-((1-(6-methylpyridin-2-yl)ethyl)amino)-9H-xanthen-4-yl)-4-morpholinopyridin-2(1H)-one] |

| IC50 | SMILES |
| --- | --- |
| < 0.1 µM | Cc1ccc(C(Nc2ccc3c(c2)Sc2cccc(-c4cc(N5CCOCC5)cc(=O)[nH]4)c2S3)C2CN(CCO)CCO2)nc1 (racemic) [Example 1-57-2, 6-(7-(((4-(2-Hydroxyethyl)morpholin-2-yl)(5-methylpyridin-2-yl)methyl)amino)thianthren-1-yl)-4-morpholinopyridin-2(1H)-one] |
| 0.1 to 0.5 µM | COC(=O)CCCCN1CCC(Nc2ccc3c(c2)Cc2cccc(-c4cc(N5CCOCC5)cc(=O)[nH]4)c2O3)CC1 [Example 2-30-16, Methyl 5-(4-((5-(4-morpholino-6-oxo-1,6-dihydropyridin-2-yl)-9H-xanthen-2-yl)amino)piperidin-1-yl)pentanoate] |
| 0.1 to 0.5 µM | O=C1CCCN1c1cncc(CNc2ccc3c(c2)Cc2cccc(-c4cc(N5CCOCC5)cc(=O)[nH]4)c2O3)c1 [Example 2-2-67, 4-Morpholino-6-(7-(((5-(2-oxopyrrolidin-1-yl)pyridin-3-yl)methyl)amino)-9H-xanthen-4-yl)pyridin-2(1H)-one] |
| 0.1 to 0.5 µM | CCOC(=O)c1cccc(CNc2ccc3c(c2)Cc2cccc(-c4cc(N5CCOCC5)cc(=O)[nH]4)c2O3)n1 [Example 2-14-73, Ethyl 6-(((5-(4-morpholino-6-oxo-1,6-dihydropyridin-2-yl)-9H-xanthen-2-yl)amino)methyl)picolinate] |
| 0.1 to 0.5 µM | O=c1cc(N2CCOCC2)cc(-c2cccc3c2Oc2ccc(NCc4cnccc4Cl)cc2C3)[nH]1 [Example 2-14-4, 6-(7-(((4-Chloropyridin-3-yl)methyl)amino)-9H-xanthen-4-yl)-4-morpholino pyridin-2(1H)-one] |
| 0.5 to 2 µM | CC(=O)Nc1cccc(CNc2ccc3c(c2)Cc2cccc(-c4cc(N5CCOCC5)cc(=O)[nH]4)c2O3)n1 [Example 2-2-73, N-(6-(((5-(4-Morpholino-6-oxo-1,6-dihydropyridin-2-yl)-9H-xanthen-2-yl)amino)methyl)pyridin-2-yl) acetamide] |
| 0.5 to 2 µM | Cn1cc(CNc2ccc3c(c2)Cc2cccc(-c4cc(N5CCOCC5)cc(=O)[nH]4)c2O3)ccc1=O [Example 2-2-45, 1-Methyl-5-(((5-(4-morpholino-6-oxo-1,6-dihydropyridin-2-yl)-9H-xanthen-2-yl)amino)methyl) pyridin-2(1H)-one] |
| < 0.1 µM | O=c1cc(N2CCOCC2)cc(-c2cccc3c2Sc2ccc(NCc4cncc(-c5cccnc5)c4)cc2S3)[nH]1 [Example 1-12-21, 6-(7-(([3,3′-Bipyridin]-5-ylmethyl)amino)thianthren-1-yl)-4-morpholino pyridin-2 (1H)-one] |
| 0.1 to 0.5 µM | O=c1cc(N2CCOCC2)cc(-c2cccc3c2Oc2ccc(NCc4cncc(-c5cccnc5)c4)cc2C3)[nH]1 [Example 2-2-57, 6-(7-(([3,3′-Bipyridin]-5-ylmethyl)amino)-9H-xanthen-4-yl)-4-morpholino pyridin-2 (1H)-one] |
| 0.1 to 0.5 µM | CN(C)c1nccc(CNc2ccc3c(c2)Sc2cccc(-c4cc(N5CCOCC5)cc(=O)[nH]4)c2S3)n1 [Example 1-12-40, 6-(7-(((2-(Dimethylamino)pyrimidin-4-yl)methyl)amino)thianthren-1-yl)-4-morpholino pyridin-2(1H)-one] |
| 0.1 to 0.5 µM | COc1ccc(CCN2CCCC(Nc3ccc4c(c3)Sc3cccc(-c5cc(N6CCOCC6)cc(=O)[nH]5)c3O4)CC2)cc1 (centres unmarked) [Example 4-7, 6-(8-((1-(4-Methoxyphenethyl)azepan-4-yl)amino)phenoxathiin-4-yl)-4-morpholinopyridin-2(1H)-one] |
| 0.1 to 0.5 µM | Cc1ccnc(C(CO)Nc2ccc3c(c2)Cc2cccc(-c4cc(N5CCOCC5)cc(=O)[nH]4)c2O3)c1 (single isomer, unassigned) [Example 2-14-91, 6-(7-((2-hydroxy-1-(4-methylpyridin-2-yl)ethyl)amino)-9H-xanthen-4-yl)-4-morpholinopyridin-2(1H)-one] |
| < 0.1 µM | COCC[C@H](CN1CCOCC1)Nc1ccc2c(c1)Sc1cccc(-c3cc(N4CCOCC4)cc(=O)[nH]3)c1S2 [Example 1-59-1, (R)-6-(7-((4-methoxy-1-morpholinobutan-2-yl)amino)thianthren-1-yl)-4-morpholinopyridin-2(1H)-one] |
| 0.1 to 0.5 µM | COc1cc(CNc2ccc3c(c2)Cc2ccnc(-c4cc(N5CCOCC5)cc(=O)[nH]4)c2O3)cnc1OC [Example 2-41-10, 6-(7-(((5,6-Dimethoxypyridin-3-yl)methyl)amino)-5H-chromeno[2,3-c]pyridin-1-yl)-4-morpholino pyridin-2(1H)-one] |
| 0.1 to 0.5 µM | O=c1cc(N2CCOCC2)cc(-c2cccc3c2Oc2ccc(NC4CCNCC4)cc2S3)[nH]1 [Example 4-9, 4-Morpholino-6-(8-(piperidin-4-ylamino)phenoxathiin-4-yl)pyridin-2(1H)-one] |
| 0.5 to 2 µM | CN(C)CC(CN1CCOCC1)Nc1ccc2c(c1)Sc1cccc(-c3cc(N4CCOCC4)cc(=O)[nH]3)c1S2 (centres unmarked) [Example 9-3, 6-(7-((1-(Dimethylamino)-3-morpholinopropan-2-yl)amino)thianthren-1-yl)-4-morpholinopyridin-2(1H)-one] |
